Results: US20180099937A1, “NOVEL ARYL-CYANOGUANIDINE COMPOUNDS” (Bayer Pharma Aktiengesellschaft, priority 2015, published 2018)

Target: SMYD2 (Homo sapiens, UniProt Q9NRG4)
Experiment: Scintillation Proximity Assay (SPA) for detection of SMYD2 enzymatic inhibition
Type: biochemical
Parameters: The SMYD2 full length enzyme was produced in-house by expression (with an N-terminal 6× His tag) in E. coli; 6xHis (N); made in house; host or cells: E. coli
Conditions: SMYD2 full length enzyme, p53 Peptide substrate 1.0 μM, 3H-SAM 60 nM; read-out: IC50 [mol/l] (SPA Assay)
From the text: 1.1 Scintillation Proximity Assay (SPA) for Detection of SMYD2 Enzymatic Inhibition
SMYD2 inhibitory activities of the compounds described in the present invention were quantified using a scintillation proximity assay (SPA) which measures methylation by the enzyme of the synthetic, biotinylated peptide Btn-Ahx-[…]—Amid×TFA (Biosyntan) derived from p53 and referred to from here on as “p53 Peptide”. The SMYD2 full length enzyme was produced in-house by expression (with an N-terminal 6× His tag) in E. coli and purification by affinity chromatography on a Ni-NTA Sepharose column followed by a size exclusion chromatography step on a Superdex 200 16/60 column (GE Healthcare).
In a typical assay 11 different concentrations of each compound (0.1 nM, 0.33 nM, 1.1 nM, 3.8 nM, 13 nM, 44 nM, 0.15 μM, 0.51 μM, 1.7 μM, 5.9 μM and 20 μM) were tested in duplicate within the same microtiter plate. To this end, 100-fold concentrated compound solutions (in DMSO) were previously prepared by serial dilution (1:3.4) of 2 mM stocks in a clear low volume 384-well source microliter plate (Greiner Bio-One), from which 50 nl of compound solutions were transferred into a white low volume test microtiter plate from the same supplier. Subsequently, 2.5 μl SMYD2 in aqueous assay buffer [50 mM Tris/HCl pH 9.0 (AppliChem), 1 mM dithiothreitol (DTT, Sigma), 0.01% (w/v) bovine serum albumine (BSA, Sigma), 0.0022% (v/v) Pluronic (Sigma)] were added to the compounds in the test plate to a final enzyme concentration of —typically—3 nM (this parameter was adjusted depending on the activity of the enzyme lot in order to be within the linear dynamic range of the assay). The samples were then incubated for 15 min at 22° C. to allow pre-equilibration of the putative enzyme-inhibitor complexes before the start of the methylation reaction, which was initiated by the addition of 2.5 μl 2-fold concentrated solution (in assay buffer) of titriated S-Adenosyl-L-Methionine (3H-SAM, Perkin Elmer, final concentration: 60 nM) and p53 Peptide substrate (final concentration: 1.0 μM). The resulting mixture (5 μl final volume) was shortly centrifuged (2 min., 1500 rpm) and incubated at 22° C. during 30 min. Thereupon the reaction was stopped by adding 3 μl of Streptavidin PS SPA imaging beads (Perkin Elmer, final concentration of 3.12 μg/μl) and “cold” SAM (AK Scientific, 25 μM final concentration) for non-specific binding reduction. Plates containing the stopped reaction were sealed with transparent adhesive foil (Perkin Elmer), centrifuged (2 min., 1500 rpm), and further incubated for —at least—1 h at RT (or overnight at 4° C.) in order to allow the SPA signals to develop. Subsequently, the amount of product was evaluated by measuring the energy transfer from the β-particles emitted by the 3H-labeled substrate to the Europium scintillator co-polymerized in the polystyrene matrix of the PS imaging beads, using the standard settings for this purpose of a Viewlux (Perkin-Elmer) CCD plate imaging device (emission filter 613/55 (IFP). The resulting scintillation counts were taken as indicator for the amount of methylated peptide per well. The data were normalised using two sets of control wells (typically 16 each) for high−(=enzyme reaction with DMSO instead of test compound=0% =Minimum inhibition) and low−(=all assay components without enzyme=100% =Maximum inhibition) SMYD2 activity. IC50 values were calculated by fitting the normalized inhibition data to a 4-parameter logistic equation using the “Screener” analysis software from Genedata.

Sequence of SMYD2 (Q9NRG4 whole entry): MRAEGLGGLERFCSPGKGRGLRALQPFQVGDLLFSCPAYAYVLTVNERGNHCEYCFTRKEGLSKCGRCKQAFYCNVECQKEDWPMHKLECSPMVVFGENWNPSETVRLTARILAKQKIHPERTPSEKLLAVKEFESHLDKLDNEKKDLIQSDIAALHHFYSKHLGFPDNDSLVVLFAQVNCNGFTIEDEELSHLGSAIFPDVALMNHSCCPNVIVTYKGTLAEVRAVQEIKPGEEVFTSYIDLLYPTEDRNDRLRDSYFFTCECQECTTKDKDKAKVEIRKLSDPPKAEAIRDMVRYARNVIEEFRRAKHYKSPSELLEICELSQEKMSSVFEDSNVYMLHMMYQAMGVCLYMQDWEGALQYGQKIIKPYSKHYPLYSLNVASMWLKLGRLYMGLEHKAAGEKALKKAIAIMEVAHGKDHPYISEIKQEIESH

IC50 [nM] | Compound
663 | CCN(C(=O)[C@H]1C[C@@H](F)CN1)C1CN(/C(=N\C#N)Nc2cccc(OC(F)F)c2)N=C1c1ccc(Cl)c(Cl)c1 (single isomer, unassigned) [Example 4.2]
21 | CCN(C(=O)[C@H]1CCCN1)C1CN(/C(=N\C#N)Nc2cccc(OC(F)(F)F)c2)N=C1c1ccc(Cl)c(Cl)c1 (single isomer, unassigned) [Example 17.1, N-[1-{N′-Cyano-N-[3-(trifluoromethoxy)phenyl]carbamimidoyl}-3-(3,4-dichlorophenyl)-4,5-dihydro-1H-pyrazol-4-yl]-N-ethyl-D-prolinamide]
615 | CCN(C(=O)[C@H]1CCCN1)C1CN(/C(=N\C#N)Nc2cc(OC)ccc2C)N=C1c1ccc(Cl)c(Cl)c1 (mixture of isomers) [Example 34, N-{1-[N′-Cyano-N-(5-methoxy-2-methylphenyl)carbamimidoyl]-3-(3,4-dichlorophenyl)-4,5-dihydro-1H-pyrazol-4-yl}-N-ethyl-D-prolinamide]
505 | CCN(C(=O)[C@H]1CCCN1)C1CN(/C(=N\C#N)Nc2cccc(OCC(F)(F)F)c2)N=C1c1ccc(Cl)c(Cl)c1 (mixture of isomers) [Example 35, N-[1-{N′-Cyano-N-[3-(2,2,2-trifluorelethoxy)phenyl]carbamimidayl}-3-(3,4-dichlorophenyl)-4,5-dihydro-1H-pyrazol-4-yl]-N-ethyl-D-prolinamide]
61.3 | CCN(C(=O)[C@H]1CCCN1)C1CN(/C(=N\C#N)Nc2cc(OC(F)(F)F)ccc2F)N=C1c1ccc(Cl)c(Cl)c1 (mixture of isomers) [Example 26, N-[1-{N′-Cyano-N-[2-fluoro-5-(trifluoromethoxy)phenyl]carbamimidoyl}-3-(3,4-dichlorophenyl)-4,5-dihydro-1H-pyrazol-4-yl]-N-ethyl-D-prolinamide]
79.8 | CCN(C(=O)[C@H]1C[C@@H](O)CN1)C1CN(/C(=N\C#N)Nc2cccc(OC(F)F)c2F)N=C1c1ccc(Cl)c(Cl)c1 (mixture of isomers) [Example 14, (4R)-N-[1-{N′-Cyano-N-[3-(difluoromethoxy)-2-fluorophenyl]carbamimidoyl}-3-(3,4-dichlorophenyl)-4,5-dihydro-1H-pyrazol-4-yl]-N-ethyl-4-hydroxy-D-prolinamide]
22.4 | CCN(C(=O)[C@H]1C[C@@H](O)CN1)C1CN(/C(=N\C#N)Nc2cc(OC(F)(F)F)ccc2OC)N=C1c1ccc(Cl)c(Cl)c1 (mixture of isomers) [Example 20, (4R)-N-[1-{N′-Cyano-N-[2-methoxy-5-(trifluoromethoxy)phenyl]carbamimidayl}-3-(3,4-dichlorophenyl)-4,5-dihydro-1H-pyrazol-4-yl]-N-ethyl-1-hydroxy-D-prolinamide]
748 | N#C/N=C(/Nc1cccc(OC(F)F)c1)N1CC(NC(=O)C2(N)CCCC2)C(c2ccc(Cl)c(Cl)c2)=N1 (racemic) [Example 10, rac-1-Amino-N-[1-{N′-cyano-N-[3-(difluoromethoxy)phenyl]carbamimidoyl}-3-(3,4-dichlorophenyl)-4,5-dihydro-1H-pyrazol-4-yl]cyclopentanecarboxamide]
111 | CCN(C(=O)[C@H]1C[C@@H](O)CN1)C1CN(/C(=N\C#N)Nc2ccc(F)c(OC(F)F)c2)N=C1c1ccc(Cl)c(Cl)c1 (mixture of isomers) [Example 16, (4R)-N-[1-{N′-Cyano-N-[3-(difluoromethoxy)-4-fluorophenyl]carbamimidoyl}-3-(3,4-dichlorophenyl)-4,5-dihydro-1H-pyrazol-4-yl]-N-ethyl-4-hydroxy-D-prolinamide]
> 20000 | CCN(C(=O)c1cccc(=O)[nH]1)C1CN(/C(=N\C#N)Nc2cccc(OC(F)F)c2)N=C1c1ccc(Cl)c(Cl)c1 (single isomer, unassigned) [Example 5.2, N-[1-{N′-Cyano-N-[3-(difluoromethoxy)phenyl]carbamimidoyl}-3-(3,4-dichlorophenyl)-4,5-dihydro-1H-pyrazol-4-yl]-N-ethyl-6-oxo-1,6-dihydropyridine-2-carboxamide]
302 | CCN(C(=O)[C@H]1CCN1)C1CN(/C(=N\C#N)Nc2cccc(OC(F)F)c2)N=C1c1ccc(Cl)c(C)c1 (single isomer, unassigned) [Example 36.2]
239 | CCN(C(=O)[C@@H]1CCC[C@@H]1N)C1CN(/C(=N\C#N)Nc2cc(OC)cc(C(F)(F)F)c2)N=C1c1ccc(Cl)c(Cl)c1 (mixture of isomers) [Example 45, (1R,2S)-2-Amino-N-[1-{N′-cyano-N-[3-methoxy-5-(trifluoromethyl)phenyl]carbamimidoyl}-3-(3,4-dichlorophenyl)-4,5-dihydro-1H-pyrazol-4-yl]-N-ethylcyclopentanecarboxamide]
603 | N#C/N=C(/Nc1cccc(OC(F)F)c1)N1CC(NC(=O)C2(N)CCC2)C(c2ccc(Cl)c(Cl)c2)=N1 (racemic) [Example 9, rac-1-Amino-N-[1-{N′-cyano-N-[3-(difluoromethoxy)phenyl]carbamimidoyl}-3-(3,4-dichlorophenyl)-4,5-dihydro-1H-pyrazol-4-yl]cyclobutanecarboxamide]
23.7 | CCN(C(=O)[C@H]1CCCN1)C1CN(/C(=N\C#N)Nc2cccc(CC(F)(F)F)c2)N=C1c1ccc(Cl)c(Cl)c1 (mixture of isomers) [Example 31, N-[1-{N′-Cyano-N-[3-(2,2,2-trifluorelethyl)phenyl]carbamimidayl}-3-(3,4-dichlorophenyl)-4,5-dihydro-1H-pyrazol-4-yl]-N-ethyl-D-prolinamide]
85.2 | CCN(C(=O)[C@H]1C[C@@H](F)CN1)C1CN(/C(=N\C#N)Nc2cccc(OC(F)F)c2)N=C1c1ccc(Cl)c(Cl)c1 (mixture of isomers) [Example 4, (4R)-N-[1-{N′-Cyano-N-[3-(difluoromethoxy)phenyl]carbamimidoyl}-3-(3,4-dichlorophenyl)-4,5-dihydro-1H-pyrazol-4-yl]-N-ethyl-4-fluoro-D-prolinamide]
1330 | N#C/N=C(/Nc1cccc(OC(F)F)c1)N1CC(NC(=O)C2(N)CCCCC2)C(c2ccc(Cl)c(Cl)c2)=N1 (racemic) [Example 11, rac-1-Amino-N-[1-{N′-cyano-N-[3-(difluoromethoxy)phenyl]carbamimidoyl}-3-(3,4-dichlorophenyl)-4,5-dihydro-1H-pyrazol-4-yl]cyclohexanecarboxamide]
~20000 | CCN(C(=O)[C@H]1C[C@@H](F)CN1)C1CN(/C(=N\C#N)Nc2cccc(OC(F)F)c2)N=C1c1ccc(Cl)c(C)c1 (single isomer, unassigned) [Example 38.2]
432 | CCN(C(=O)[C@@H]1CCCC[C@@H]1N)C1CN(/C(=N\C#N)Nc2cccc(OC(F)F)c2)N=C1c1ccc(Cl)c(Cl)c1 (mixture of isomers) [Example 43, (1R,2S)-2-amino-N-[1-{N′-cyano-N-[3-(difluoromethoxy)phenyl]carbamimidoyl}-3-(3,4-dichlorophenyl)-4,5-dihydro-1H-pyrazol-4-yl]-N-ethylcyclohexanecarboxamide]
237 | C[C@]1(C(=O)NC2CN(/C(=N\C#N)Nc3cccc(OC(F)F)c3)N=C2c2ccc(Cl)c(Cl)c2)CCCN1 (single isomer, unassigned) [Example 6.2, N-[1-{N′-Cyano-N-[3-(difluoromethoxy)phenyl]carbamimidoyl}-3-(3,4-dichlorophenyl)-4,5-dihydro-1H-pyrazol-4-yl]-2-methyl-D-prolinamide]
